Measured values reported in patent publication US20260200897A1, “4-((5-(3-(4-(PYRIDIN-2-YL)CYCLOPENTYL)-1H-PYRAZOL-3-YL)AMINO)-BENZENESULFONAMIDE DERIVATIVES AND SIMILAR COMPOUNDS AS CDK INHIBITORS FOR THE TREATMENT OF CANCER” (BeOne Medicines I GmbH, priority 2023, published 2026).
pIC50: −log10 of the molar value.

Experiments:
CDK1/Cyclin B1 = CDK1/Cyclin B1 (Homo sapiens, UniProt P06493); assay: CDK1/Cyclin B1 TR-FRET biochemical assay, 1 mM ATP; conditions: 0.15 μM Rb (Ser780)-biotin substrate, 90 min reaction, Table 2
CDK2/Cyclin E1 = CDK2/Cyclin E1 (Homo sapiens, UniProt P24941); assay: CDK2/Cyclin E1 TR-FRET biochemical assay, 1 mM ATP; conditions: 0.15 μM Rb (Ser780)-biotin substrate, 90 min reaction, Table 2

Chain of CDK1/Cyclin B1 (P06493 whole entry): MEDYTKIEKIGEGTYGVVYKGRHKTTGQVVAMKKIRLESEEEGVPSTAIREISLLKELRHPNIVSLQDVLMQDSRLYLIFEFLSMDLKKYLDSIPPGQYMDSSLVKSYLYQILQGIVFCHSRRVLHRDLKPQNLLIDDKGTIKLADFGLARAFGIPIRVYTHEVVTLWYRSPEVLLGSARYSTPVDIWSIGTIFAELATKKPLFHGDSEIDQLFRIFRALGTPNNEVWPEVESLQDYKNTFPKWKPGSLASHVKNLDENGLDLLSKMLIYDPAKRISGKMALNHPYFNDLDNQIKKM
Chain of CDK1/Cyclin B1 (P14635 whole entry partner): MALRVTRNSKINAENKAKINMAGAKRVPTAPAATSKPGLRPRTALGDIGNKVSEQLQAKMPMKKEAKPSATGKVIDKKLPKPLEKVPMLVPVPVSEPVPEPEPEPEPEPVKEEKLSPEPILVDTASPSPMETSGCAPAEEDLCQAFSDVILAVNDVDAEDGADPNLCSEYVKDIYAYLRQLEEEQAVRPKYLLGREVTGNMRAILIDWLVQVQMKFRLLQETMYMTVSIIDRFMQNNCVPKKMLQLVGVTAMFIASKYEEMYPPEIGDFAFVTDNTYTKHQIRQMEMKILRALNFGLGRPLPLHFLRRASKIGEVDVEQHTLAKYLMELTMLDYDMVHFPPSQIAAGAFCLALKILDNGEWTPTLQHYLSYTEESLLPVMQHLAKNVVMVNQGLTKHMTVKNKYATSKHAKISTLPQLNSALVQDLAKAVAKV

| pIC50 (CDK1/Cyclin B1) | pIC50 (CDK2/Cyclin E1) | Structure (SMILES) |
| --- | --- | --- |
| 5.56 | 7.40 | CCc1ccnc(C2CCC(c3cc(Nc4ccc5c(c4F)CNS5(=O)=O)n[nH]3)C2)n1 (stereo not shown) [Example 125, 5-((5-(3-(4-ethylpyrimidin-2-yl)cyclopentyl)-1H-pyrazol-3-yl)amino)-4-fluoro-2,3-dihydrobenzo[d]isothiazole 1,1-dioxide] |
| < 5.00 | 6.76 | CC(C)c1cnc(C2CCC(c3cc(Nc4ccc5c(c4F)CNS5(=O)=O)n[nH]3)C2)o1 (single isomer, unassigned) [Example 109b, 4-fluoro-5-((5-(3-(5-isopropyloxazol-2-yl)cyclopentyl)-1H-pyrazol-3-yl)amino)-2,3-dihydrobenzo[d]isothiazole 1,1-dioxide] |
| < 5.00 | 5.90 | CC(C)(C)c1cncc(C2CCC(c3cc(Nc4ccc5c(c4F)CNS5(=O)=O)n[nH]3)C2)c1 (stereo not shown) [Example 128, 5-((5-(3-(5-(tert-butyl)pyridin-3-yl)cyclopentyl)-1H-pyrazol-3-yl)amino)-4-fluoro-2,3-dihydrobenzo[d]isothiazole 1,1-dioxide] |
| < 5.00 | 7.01 | O=S1(=O)NCc2c1ccc(Nc1cc(C3CCC(c4ncc(C5CC5)o4)C3)[nH]n1)c2F (stereo not shown) [Example 116, 5-((5-(3-(5-cyclopropyloxazol-2-yl)cyclopentyl)-1H-pyrazol-3-yl)amino)-4-fluoro-2,3-dihydrobenzo[d]isothiazole 1,1-dioxide] |
| < 5.00 | 7.38 | CC(C)c1cnc(C2CCC(c3cc(Nc4cc5c(cc4F)S(=O)(=O)NC5)n[nH]3)C2)o1 (stereo not shown) [Example 18, 6-fluoro-5-((5-(3-(5-isopropyloxazol-2-yl)cyclopentyl)-1H-pyrazol-3-yl)amino)-2,3-dihydrobenzo[d]isothiazole 1,1-dioxide] |
| < 5.00 | 6.80 | CC(C)c1cnc(C2CCC(c3cc(Nc4ccc5c(c4F)CNS5(=O)=O)n[nH]3)C2)o1 (single isomer, unassigned) [Example 109d, 4-fluoro-5-((5-(3-(5-isopropyloxazol-2-yl)cyclopentyl)-1H-pyrazol-3-yl)amino)-2,3-dihydrobenzo[d]isothiazole 1,1-dioxide] |
| < 5.00 | 7.14 | CC(C)c1ccnc(C2CCC(c3cc(Nc4ccc5c(c4F)CNS5(=O)=O)n[nH]3)C2)c1 (stereo not shown) [Example 122, 4-fluoro-5-((5-(3-(4-isopropylpyridin-2-yl)cyclopentyl)-1H-pyrazol-3-yl)amino)-2,3-dihydrobenzo[d]isothiazole 1,1-dioxide] |
| < 5.00 | 6.45 | CC(C)(C)c1cnn([C@@H]2CC[C@H](c3cc(Nc4ccc5c(c4F)CNS5(=O)=O)n[nH]3)C2)c1 (relative stereo) [Example 89, cis-5-((5-(3-(4-(tert-butyl)-1H-pyrazol-1-yl)cyclopentyl)-1H-pyrazol-3-yl)amino)-4-fluoro-2,3-dihydrobenzo[d]isothiazole 1,1-dioxide] |
| 6.80 | 8.74 | CC(C)c1cnc(C2CCC(c3cc(Nc4ccc5c(c4)CS(=O)(=O)N5)n[nH]3)C2)o1 (single isomer, unassigned) [Example 138a, cis-5-((5-(3-(5-isopropyloxazol-2-yl)cyclopentyl)-1H-pyrazol-3-yl)amino)-1,3-dihydrobenzo[c]isothiazole 2,2-dioxide] |
| < 5.00 | 6.09 | CC(C)c1ncc(C2CCC(c3cc(Nc4ccc5c(c4F)CNS5(=O)=O)n[nH]3)C2)o1 (stereo not shown) [Example 105, 4-fluoro-5-((5-(3-(2-isopropyloxazol-5-yl)cyclopentyl)-1H-pyrazol-3-yl)amino)-2,3-dihydrobenzo[d]isothiazole 1,1-dioxide] |
| 5.96 | 8.10 | CC(C)c1cnc(C2CCC(c3cc(Nc4ccc5c(c4F)CCS(=O)(=O)N5)n[nH]3)C2)o1 (stereo not shown) [Example 167, 5-fluoro-6-((5-(3-(5-isopropyloxazol-2-yl)cyclopentyl)-1H-pyrazol-3-yl)amino)-3,4-dihydro-1H-benzo[c][1,2]thiazine 2,2-dioxide] |
| < 5.00 | 5.10 | CC(C)(C)c1cc(C2CCC(c3cc(Nc4ccc5c(c4F)CNS5(=O)=O)n[nH]3)C2)ccn1 (stereo not shown) [Example 129, 5-((5-(3-(2-(tert-butyl)pyridin-4-yl)cyclopentyl)-1H-pyrazol-3-yl)amino)-4-fluoro-2,3-dihydrobenzo[d]isothiazole 1,1-dioxide] |
| < 5.00 | 5.21 | CC(C)(C)c1cnc([C@@H]2CC[C@H](c3cc(Nc4ccc5c(c4F)CS(=O)(=O)N5)n[nH]3)C2)s1 (relative stereo) [Example 149, cis-5-((5-(3-(5-(tert-butyl)thiazol-2-yl)cyclopentyl)-1H-pyrazol-3-yl)amino)-4-fluoro-1,3-dihydrobenzo[c]isothiazole 2,2-dioxide] |
| 6.69 | 9.05 | CC(C)(C)c1cnc(C2CCC(c3cc(Nc4ccc5c(c4F)CCS(=O)(=O)N5)n[nH]3)C2)o1 (stereo not shown) [Example 166, 6-((5-(3-(5-(tert-butyl)oxazol-2-yl)cyclopentyl)-1H-pyrazol-3-yl)amino)-5-fluoro-3,4-dihydro-1H-benzo[c][1,2]thiazine 2,2-dioxide] |
| 5.34 | 7.72 | CC(C)c1cnc(C2CCC(c3cc(Nc4ccc5c(c4F)CS(=O)(=O)N5)n[nH]3)C2)o1 (single isomer, unassigned) [Example 152b, cis-4-fluoro-5-((5-(3-(5-isopropyloxazol-2-yl)cyclopentyl)-1H-pyrazol-3-yl)amino)-1,3-dihydrobenzo[c]isothiazole 2,2-dioxide] |
| 5.46 | 8.37 | CC(C)(C)c1csnc1O[C@@H]1CC[C@H](c2cc(Nc3ccc4c(c3F)CNS4(=O)=O)n[nH]2)C1 (relative stereo) [Example 56, cis-5-((5-(3-((4-(tert-butyl)isothiazol-3-yl)oxy)cyclopentyl)-1H-pyrazol-3-yl)amino)-4-fluoro-2,3-dihydrobenzo[d]isothiazole 1,1-dioxide] |
| 6.47 | 8.52 | Cc1nc(C2CCC(c3cc(Nc4ccc5c(c4F)CS(=O)(=O)C5)n[nH]3)C2)oc1C(C)(C)C (stereo not shown) [Example 177, 5-((5-(3-(5-(tert-butyl)-4-methyloxazol-2-yl)cyclopentyl)-1H-pyrazol-3-yl)amino)-4-fluoro-1,3-dihydrobenzo[c]thiophene 2,2-dioxide] |
| < 5.00 | < 5.00 | CC(C)(C)c1cn([C@@H]2CC[C@H](c3cc(Nc4ccc5c(c4F)CNS5(=O)=O)n[nH]3)C2)cn1 (relative stereo) [Example 88, cis-5-((5-(3-(4-(tert-butyl)-1H-imidazol-1-yl)cyclopentyl)-1H-pyrazol-3-yl)amino)-4-fluoro-2,3-dihydrobenzo[d]isothiazole 1,1-dioxide] |
| < 5.00 | 5.63 | CC(C)(C)c1cc(O[C@@H]2CC[C@H](c3cc(Nc4ccc5c(c4F)CNS5(=O)=O)n[nH]3)C2)ncn1 (relative stereo) [Example 38, cis-5-((5-(3-((6-(tert-butyl)pyrimidin-4-yl)oxy)cyclopentyl)-1H-pyrazol-3-yl)amino)-4-fluoro-2,3-dihydrobenzo[d]isothiazole 1,1-dioxide] |
| < 5.00 | 7.14 | O=S1(=O)NCc2cc(Nc3cc(C4CCC(c5ncc(C6CC6)o5)C4)[nH]n3)c(F)cc21 (stereo not shown) [Example 20, 5-((5-(3-(5-cyclopropyloxazol-2-yl)cyclopentyl)-1H-pyrazol-3-yl)amino)-6-fluoro-2,3-dihydrobenzo[d]isothiazole 1,1-dioxide] |
